Assay [1] concerns the target T1, Proteasome subunit beta type-5 (Rattus norvegicus, UniProt P28075).
T1 sequence (P28075 whole entry): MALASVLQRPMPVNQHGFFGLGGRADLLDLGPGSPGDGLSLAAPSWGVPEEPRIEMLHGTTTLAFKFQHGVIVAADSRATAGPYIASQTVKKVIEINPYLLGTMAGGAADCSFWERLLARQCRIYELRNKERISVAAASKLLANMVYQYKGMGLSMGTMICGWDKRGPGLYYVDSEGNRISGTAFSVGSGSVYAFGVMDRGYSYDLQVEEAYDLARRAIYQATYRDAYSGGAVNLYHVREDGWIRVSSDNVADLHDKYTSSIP
The assay can be described thus: Inhibition of chymotrypsin-like activity of rat liver 26 proteasome assessed as decrease in fluorescence using succinyl-Leu-Leu-Val-Tyr-4-methylcoumaryl-7-amide as substrate preincubated for 30 mins followed by addition of substrate and measured after 1 hr by fluorescence based method.

Assay [2] concerns the target T2, Proteasome Macropain subunit MB1 (Homo sapiens, UniProt P28074).
T2 sequence (P28074 whole entry): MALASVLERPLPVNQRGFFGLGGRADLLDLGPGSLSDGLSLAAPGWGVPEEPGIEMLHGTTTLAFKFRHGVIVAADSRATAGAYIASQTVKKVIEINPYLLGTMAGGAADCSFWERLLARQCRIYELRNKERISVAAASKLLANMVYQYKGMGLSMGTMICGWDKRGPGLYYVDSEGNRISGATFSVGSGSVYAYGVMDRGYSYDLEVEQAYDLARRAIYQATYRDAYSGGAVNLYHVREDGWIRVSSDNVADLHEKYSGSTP
Briefly: Inhibition of chymotrypsin-like activity of purified human erythrocyte 20S proteasome assessed as decrease in AMC hydrolysis using Suc-LLVY-AMC as substrate preincubated for 10 mins and measured by fluorescence based method.

For assay [3], the target named is T2, Proteasome Macropain subunit MB1. Briefly: Inhibition of chymotrypsin-like activity of purified human 20S proteasome assessed as decrease in AMC hydrolysis using Suc-Leu-Leu-Val-Tyr-AMC as substrate incubated for 30 mins by fluorometric analysis.
Assay [4] shares this target. The assay can be described thus: Inhibition of chymotrypsin-like activity of purified human 20S proteasome expressed in human Jurkat cells assessed as decrease in AMC hydrolysis using Suc-Leu-Leu-Val-Tyr-AMC as substrate incubated for 2 hrs by fluorescence based method.
Assay [5] shares this target. The assay can be described thus: Inhibition of chymotrypsin-like activity of human 26S proteasome in human Jurkat cells assessed as decrease in AMC hydrolysis using Z-Gly-Gly-Leu-AMC as substrate after 24 hrs by fluorescence based method. The assay is classed as cell-based.
Assay [6] in a line: Inhibition of chymotrypsin-like activity of rabbit 20S proteasome assessed as AMC hydrolysis using Suc-LLVY-AMC as substrate incubated for 2hrs by fluorescence based method. Further details: species or system Oryctolagus cuniculus.
Assay [7] addresses T2, Proteasome Macropain subunit MB1. The assay can be described thus: Inhibition of chymotrypsin-like activity of human 26S proteasome extracted from human Jurkat cells assessed as decrease in AMC hydrolysis using […] as substrate after 90 mins by fluorometric analysis. The assay is classed as cell-free.
The target is the same in assay [8]. The assay can be described thus: Inhibition of chymotrypsin-like activity of human 26S proteasome in human Jurkat cells assessed as decrease in AMC hydrolysis using […] as substrate preincubated for 12 hrs followed by addition of substrate and measured after 2 hrs by fluorometric analysis. The assay is classed as cell-based.
Assay [9] can be described thus: Inhibition of chymotrypsin-like activity of purified rabbit 20S proteasome assessed as decrease in AMC hydrolysis using Suc-Leu-Leu-Val-Tyr-AMC as substrate incubated for 30 mins by fluorescence based method. Further details: species or system Oryctolagus cuniculus.
Assay [10] has as its target T2, Proteasome Macropain subunit MB1. The assay can be described thus: Inhibition of chymotrypsin-like activity of human 26S proteasome extracted from human LNCap cells assessed as decrease in AMC hydrolysis using Suc-Leu-Leu-Val-Tyr-AMC as substrate incubated for 60 mins by fluorescence based method. The assay is classed as cell-free.

Values after ≈ are worked out from the molar mass of the structure shown.

Regarding `COc1cc(O)c(C(=O)c2ccc(O)cc2)c(O)c1`, the concentration for half-maximal inhibition (IC50) in assay [1] is above 0.25 µg/mL. Take `COc1ccc2c(c1)O[C@H]1c3ccc(O)cc3OC[C@@H]21`: in [2], the IC50 was above 100 µM.

Turning to `Oc1ccc(CC2COc3cc(O)ccc3C2)cc1` (configuration not stated), in assay [1], the half-inhibitory concentration (IC50) was 0.06 µg/mL (≈ 0.234 µM). Still for that read-out and setting: in the case of `C=CC(/C=C\c1ccc(O)cc1)c1ccc(O)cc1` (configuration not stated) it was 0.018 µg/mL (≈ 0.0713 µM). For `O=C(O[C@@H]1Cc2c(O)cc(O)cc2O[C@H]1c1ccc(O)c(O)c1)c1cc(O)c(O)c(O)c1` [(-)-CATECHINGALLATE], the IC50 in assay [3] stood at 0.124 µM. Consider `O=c1cc(-c2ccc(O)cc2)oc2cc(O)cc(O)c12` [APIGENIN], for which the figures for the IC50 in [4] and in assay [5] were 1.8 to 2.3 µM and 1 to 1.9 µM, respectively. Consider `COc1cc(O)ccc1CCCc1ccc(O)cc1` [BROUSSONIN B], for which, in assay [1], the 50% inhibitory concentration (IC50) was 0.046 µg/mL (≈ 0.178 µM). As for `O=c1cc(-c2ccccc2)oc2cc(O)cc(O)c12` [CHRYSIN], the concentration for half-maximal inhibition (IC50) was determined as 4.9 µM in [4] and 6.1 µM in assay [5].

With `COc1cc(/C=C/C(=O)CC(=O)/C=C/c2ccc(O)c(OC)c2)ccc1O` [CURCUMIN], the IC50 in [6] stood at 1.85 µM. In the case of `O=c1c(-c2ccc(O)cc2)coc2cc(O)ccc12` [DAIDZEIN], in [2], the 50% inhibitory concentration (IC50) is above 100 µM. Turning to `O=C(O[C@@H]1Cc2c(O)cc(O)cc2O[C@@H]1c1ccc(O)c(O)c1)c1cc(O)c(O)c(O)c1` [EPICATECHIN GALLATE], in assay [3], the half-inhibitory concentration (IC50) was determined as 0.194 µM. In the case of `Oc1cc(O)c2c(c1)O[C@H](c1cc(O)c(O)c(O)c1)[C@H](O)C2` [EPIGALLOCATECHIN], the half-inhibitory concentration (IC50) in assay [3] is 1200 µM. Regarding `O=C(O[C@@H]1Cc2c(O)cc(O)cc2O[C@@H]1c1cc(O)c(O)c(O)c1)c1cc(O)c(O)c(O)c1` [EPIGALOCATECHIN GALLATE], the IC50 in [3] is 0.086 to 0.194 µM; in assay [7], 1 to 10 µM; in [8] it was 18 µM. With `O=C1C[C@@H](c2ccc(O)c(O)c2)Oc2cc(O)cc(O)c21` [ERIODICTYOL], the IC50 in assay [4] worked out at 16.2 µM; in assay [5] it was 14.6 µM.

In the case of `COc1ccc(-c2coc3cc(O)ccc3c2=O)cc1` [FORMONONETIN], the IC50 in assay [2] was above 100 µM. Consider `O=C(O)c1cc(O)c(O)c(O)c1` [GALLIC ACID], for which, in assay [3], the 50% inhibitory concentration (IC50) was determined as 7100 µM. Same read-out and setting: the figure for `O=C(O[C@@H]1Cc2c(O)cc(O)cc2O[C@H]1c1cc(O)c(O)c(O)c1)c1cc(O)c(O)c(O)c1` [GALLOCATECHIN GALLATE] is 0.187 µM. For `O=c1c(-c2ccc(O)cc2)coc2cc(O)cc(O)c12` [GENISTEIN], the figures for the IC50 in assay [2], in assay [9] and in assay [10] were 9.26 µM, 26 µM and 65 to 70 µM, respectively. Take `O=C(/C=C/c1ccc(O)cc1)c1ccc(O)cc1O` [ISOLIQUIRITIGENIN]: the IC50 in assay [2] worked out at 4.88 µM. As for `O=c1c(O)c(-c2ccc(O)cc2)oc2cc(O)cc(O)c12` [KAEMPFEROL], the IC50 is 10.5 µM in assay [4] and 11 µM in assay [5]. As to `O=C1C[C@@H](c2ccc(O)cc2)Oc2cc(O)ccc21` [LIQUIRTIGENIN], the concentration for half-maximal inhibition (IC50) in assay [2] was above 100 µM. With `O=c1cc(-c2ccc(O)c(O)c2)oc2cc(O)cc(O)c12` [LUTEOLIN], the concentration for half-maximal inhibition (IC50) in assay [4] was determined as 1.5 µM; in [5], 1.3 µM. Taken in the same sequence, the figures for `O=c1c(O)c(-c2cc(O)c(O)c(O)c2)oc2cc(O)cc(O)c12` [MYRICETIN] were 10 µM and 12 µM. Taken in the same sequence, the figures for `O=C1C[C@@H](c2ccc(O)cc2)Oc2cc(O)cc(O)c21` [NARINGENIN] were 48.8 µM and 41.6 µM. As to `O=c1c(O)c(-c2ccc(O)c(O)c2)oc2cc(O)cc(O)c12` [QUERCETIN], the concentration for half-maximal inhibition (IC50) in [4] came out at 3.5 µM; in [5], 2 µM.

(Values after ChEMBL document CHEMBL4433200, “Another look at phenolic compounds in cancer therapy the effect of polyphenols on ubiquitin-proteasome system” (Eur J Med Chem, 2019).)
